In this data set the test system is Anopheles stephensi. Description: Anopheles stephensi treated well plate contact test: knockdown and mortality. It is filed as in vivo. Particulars: for mortality at 200 ppm / pest or weed control at 200 ppm: test compound 200 ppm; for pest or weed control at 200 ppm: adult females. Put shortly: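 Well surfaces coated with ethanol solution of compound at a defined concentration, alone or with 2 ppm TFNA-AM, then dried. Five non-blood-fed 2–5-day-old adult females per well, fed 10% sucrose; knockdown scored at 1 hour, mortality at 24 and 48 hours, replicate means reported.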

The mark [1] stands for this setting: Anopheles stephensi, test compound 0.2 ppm, without TFNA-AM, after 24 hours, read-out: mortality % 24, without TFNA-AM.
[2] abbreviates: Anopheles stephensi, test compound 0.2 ppm, without TFNA-AM, after 48 hours, read-out: mortality % 48, without TFNA-AM.
[3] abbreviates: Anopheles stephensi, test compound 0.2 ppm, without TFNA-AM, knockdown after 1 hour, read-out: Knock Down, without TFNA-AM.
Where [4] appears, read: Anopheles stephensi, test compound 2 ppm, without TFNA-AM, after 24 hours, read-out: mortality % 24, without TFNA-AM.
Where [5] appears, read: Anopheles stephensi, test compound 2 ppm, without TFNA-AM, after 48 hours, read-out: mortality % 48, without TFNA-AM.
The mark [6] stands for this setting: Anopheles stephensi, test compound 2 ppm, without TFNA-AM, knockdown after 1 hour, read-out: Knock Down, without TFNA-AM.
The mark [7] stands for this setting: Anopheles stephensi, test compound 20 ppm, without TFNA-AM, after 24 hours, read-out: mortality % 24, without TFNA-AM.
[8] abbreviates: Anopheles stephensi, test compound 20 ppm, without TFNA-AM, after 48 hours, read-out: mortality % 48, without TFNA-AM.
Where [9] appears, read: Anopheles stephensi, test compound 20 ppm, without TFNA-AM, knockdown after 1 hour, read-out: Knock Down, without TFNA-AM.
[10] abbreviates: Anopheles stephensi, without TFNA-AM, after 24 hours, read-out: mortality % 24, without TFNA-AM.
[11] abbreviates: Anopheles stephensi, without TFNA-AM, after 48 hours, read-out: mortality % 48, without TFNA-AM.
Where [12] appears, read: Anopheles stephensi, without TFNA-AM, knockdown after 1 hour, read-out: Knock Down, without TFNA-AM.
The mark [13] stands for this setting: test compound 0.2 ppm plus 2 ppm TFNA-AM, after 24 hours.
Setting [14] is: test compound 0.2 ppm plus 2 ppm TFNA-AM, after 48 hours.
Where [15] appears, read: test compound 0.2 ppm plus 2 ppm TFNA-AM, knockdown after 1 hour.
[16] abbreviates: test compound 2 ppm plus 2 ppm TFNA-AM, after 24 hours.
[17] abbreviates: test compound 2 ppm plus 2 ppm TFNA-AM, after 48 hours.
[18] abbreviates: test compound 2 ppm plus 2 ppm TFNA-AM, knockdown after 1 hour.
The mark [19] stands for this setting: test compound 20 ppm plus 2 ppm TFNA-AM, after 24 hours.
[20] abbreviates: test compound 20 ppm plus 2 ppm TFNA-AM, after 48 hours.
[21] abbreviates: test compound 20 ppm plus 2 ppm TFNA-AM, knockdown after 1 hour.
The mark [22] stands for this setting: test compound 200 ppm plus 2 ppm TFNA-AM, after 24 hours.
Where [23] appears, read: test compound 200 ppm plus 2 ppm TFNA-AM, after 48 hours.
Where [24] appears, read: test compound 200 ppm plus 2 ppm TFNA-AM, knockdown after 1 hour.
Where [25] appears, read: Anopheles stephensi, 24 h, read-out: mortality % 24, without TFNA-AM.
Setting [26] is: Anopheles stephensi, 48 h, read-out: mortality % 48, without TFNA-AM.

Each structure is given as a SMILES string. Read-outs that look alike come from different tables or passages of the source.

In general, mortality refers to the percentage killed. Take `C/C=C(\C)C(=O)O[C@H]1C[C@@H](OC(C)=O)[C@@]2(C(=O)OC)CO[C@H]3[C@@H](O)[C@@](C)([C@]45O[C@@]4(C)[C@H]4C[C@@H]5O[C@@H]5OC=C[C@@]54O)[C@H]4[C@]1(CO[C@]4(O)C(=O)OC)[C@@H]32` [Azadirachtin]: the mortality at 0.2 ppm is, setting by setting: under setting [1], 0%; under setting [2], 0%. Further, under setting [3], the pest or weed control at 0.2 ppm was 0%. Further, the mortality at 2 ppm under setting [4] was found to be 0% and the mortality at 2 ppm under setting [5] was 0%. Besides, the pest or weed control at 2 ppm under setting [6] was found to be 0%. Moreover, the mortality at 20 ppm by setting is: under setting [7], 0%; under setting [8], 0%. Besides, the pest or weed control at 20 ppm under setting [9] came to 0%. The mortality at 200 ppm under setting [10] came to 0% and the mortality at 200 ppm under setting [11] was found to be 0%. The pest or weed control at 200 ppm under setting [12] was determined as 0%. Further, the “mortality % 24, with TFNA-AM” value under setting [13] is recorded as 20%; the “mortality % 24, with TFNA-AM” value under setting [16] is listed as 20%; the “mortality % 24, with TFNA-AM” value under setting [19] is listed as 60%; the “mortality % 24, with TFNA-AM” value under setting [22] came out at 80%. The “mortality % 48, with TFNA-AM” value came out at 20% under setting [14], 20% under setting [17], 40% under setting [20] and 80% under setting [23]. The “Knock Down, with TFNA-AM” value under setting [15] stood at 100%; the “Knock Down, with TFNA-AM” value under setting [18] is recorded as 100%; the “Knock Down, with TFNA-AM” value under setting [21] worked out at 100%; the “Knock Down, with TFNA-AM” value under setting [24] amounted to 100%.
As for `CCC(Nc1ncnc(C)c1Cl)c1ccc(OC(F)F)cc1` (stereo not shown) [Diflumetorim], the mortality at 0.2 ppm under setting [1] came to 0% and the mortality at 0.2 ppm under setting [2] was determined as 0%. The pest or weed control at 0.2 ppm under setting [3] was 0%. The mortality at 2 ppm is, setting by setting: under setting [4], 60%; under setting [5], 60%. Further, under setting [6], the pest or weed control at 2 ppm was 30%. Further, the mortality at 20 ppm by setting is: under setting [7], 100%; under setting [8], 100%. The pest or weed control at 20 ppm under setting [9] amounted to 100%. For the same compound, the mortality at 200 ppm is, setting by setting: under setting [10], 100%; under setting [11], 100%. Under setting [12], the pest or weed control at 200 ppm was determined as 100%. In addition, the “mortality % 24, with TFNA-AM” value by setting is: under setting [13], 20%; under setting [16], 90%; under setting [19], 100%; under setting [22], 100%. Moreover, the “mortality % 48, with TFNA-AM” value runs as follows: under setting [14], 10%; under setting [17], 90%; under setting [20], 100%; under setting [23], 100%. Moreover, the “Knock Down, with TFNA-AM” value stood at 100% under setting [15], 100% under setting [18], 100% under setting [21] and 100% under setting [24].
`CO/C=C(/C(=O)OC)c1ccccc1Oc1ncc(C(F)(F)F)s1` [Compound 54]: the mortality at 0.2 ppm runs as follows: under setting [1], 0%; under setting [2], 0%. Besides, the pest or weed control at 0.2 ppm under setting [3] was 0%. Besides, the mortality at 2 ppm stood at 60% under setting [4] and 40% under setting [5]. Also, under setting [6], the pest or weed control at 2 ppm was 0%. Moreover, the mortality at 20 ppm was 100% under setting [7] and 100% under setting [8]. Moreover, the pest or weed control at 20 ppm under setting [9] was 100%. Further, the mortality at 200 ppm under setting [10] is 100% and the mortality at 200 ppm under setting [11] was found to be 100%. For the same compound, the pest or weed control at 200 ppm under setting [12] came to 100%. In addition, the “mortality % 48, with TFNA-AM” value reads like this: under setting [14], 10%; under setting [17], 100%; under setting [20], 100%; under setting [23], 100%. Also, the “Knock Down, with TFNA-AM” value is, setting by setting: under setting [15], 90%; under setting [18], 100%; under setting [21], 100%; under setting [24], 100%. Further, the “mortality % 24, with TFNA-AM” value under setting [16] stood at 100%; the “mortality % 24, with TFNA-AM” value under setting [19] is reported as 100%; the “mortality % 24, with TFNA-AM” value under setting [22] is listed as 100%.
On to `CNC(=O)Oc1ccccc1OC(C)C` [Propoxur], for which the mortality at 0.02 ppm turned out to be 0% under setting [25] and 0% under setting [26]. Also, the mortality at 0.2 ppm is, setting by setting: under setting [25], 100%; under setting [26], 100%. In addition, the mortality at 2 ppm runs as follows: under setting [25], 100%; under setting [26], 100%. The mortality at 20 ppm came to 100% under setting [25] and 100% under setting [26]. In addition, the pest or weed control at 0.02 ppm (Anopheles stephensi, test compound 0.02 ppm, without TFNA-AM, knockdown after 1 hour, read-out: Knock Down, without TFNA-AM) was 0%. Under setting [3], the pest or weed control at 0.2 ppm stood at 0%. Besides, the pest or weed control at 2 ppm under setting [6] came out at 100%. Also, under setting [9], the pest or weed control at 20 ppm was 100%. The “mortality % 24, with TFNA-AM” value is listed as 40% (test compound 0.02 ppm plus 2 ppm TFNA-AM, after 24 hours); 100% under setting [13]; 100% under setting [16]; 100% under setting [19]. Besides, the “mortality % 48, with TFNA-AM” value reads like this: (test compound 0.02 ppm plus 2 ppm TFNA-AM, after 48 hours) 40%; under setting [14], 100%; under setting [17], 100%; under setting [20], 100%. In addition, the “Knock Down, with TFNA-AM” value runs as follows: (test compound 0.02 ppm plus 2 ppm TFNA-AM, knockdown after 1 hour) 100%; under setting [15], 100%; under setting [18], 100%; under setting [21], 100%.
For the compound `CO/C=C(/C(=O)OC)c1ccccc1COc1cc(C(F)(F)F)nc(OC(C)C)n1` [Fluacrypyrim], the mortality at 0.2 ppm amounted to 0% under setting [1] and 0% under setting [2]. Also, the pest or weed control at 0.2 ppm under setting [3] worked out at 0%. For the same compound, the mortality at 2 ppm reads like this: under setting [4], 0%; under setting [5], 0%. Also, the pest or weed control at 2 ppm under setting [6] was determined as 0%. The mortality at 20 ppm under setting [7] amounted to 0% and the mortality at 20 ppm under setting [8] stood at 0%. Besides, the pest or weed control at 20 ppm under setting [9] was 0%. Also, the mortality at 200 ppm came out at 20% under setting [10] and 80% under setting [11]. Moreover, the pest or weed control at 200 ppm under setting [12] came to 0%. For the same compound, the “mortality % 24, with TFNA-AM” value is reported as 60% under setting [13], 100% under setting [19] and 100% under setting [22]. The “mortality % 48, with TFNA-AM” value by setting is: under setting [14], 40%; under setting [17], 100%; under setting [20], 100%; under setting [23], 100%. The “Knock Down, with TFNA-AM” value by setting is: under setting [15], 100%; under setting [18], 100%; under setting [21], 100%; under setting [24], 100%.
Turning to `Cc1cc(C(F)(C(F)(F)F)C(F)(F)F)ccc1NC(=O)c1cccc(I)c1C(=O)NC(C)(C)CS(C)(=O)=O` [Flubendiamide], the mortality at 0.2 ppm by setting is: under setting [1], 0%; under setting [2], 0%. Further, the pest or weed control at 0.2 ppm under setting [3] is 0%. Moreover, the mortality at 2 ppm worked out at 0% under setting [4] and 0% under setting [5]. For the same compound, the pest or weed control at 2 ppm under setting [6] stood at 0%. For the same compound, the mortality at 20 ppm turned out to be 0% under setting [7] and 0% under setting [8]. Also, the pest or weed control at 20 ppm under setting [9] turned out to be 0%. Also, the mortality at 200 ppm reads like this: under setting [10], 0%; under setting [11], 0%. Further, the pest or weed control at 200 ppm under setting [12] is 0%. Besides, the “mortality % 24, with TFNA-AM” value reads like this: under setting [13], 80%; under setting [16], 80%; under setting [19], 80%; under setting [22], 60%. Also, the “mortality % 48, with TFNA-AM” value is, setting by setting: under setting [14], 40%; under setting [17], 40%; under setting [20], 40%; under setting [23], 40%. Also, the “Knock Down, with TFNA-AM” value runs as follows: under setting [15], 100%; under setting [18], 100%; under setting [21], 100%; under setting [24], 100%.

The values above are taken from patent publication US20260206755A1, “COMPOUNDS AND COMPOSITIONS HAVING KNOCK-DOWN OR BLOOD FEED INHIBITION ACTIVITY AGAINST INSECT PESTS” (priority 2017, published 2026).
